According to patent US20190054070A1, “Methods and Compositions for Regenerative Synaptogenesis” (priority 2017, published 2019):

How the values were obtained:
[1] = test system: cultured hippocampal neurons; experiment: Dendritic spine morphology of GFP-Actin transfected neurons by confocal microscopy; type: cell-based, rat; settings: for spine head width: untreated 0.753±0.038 μm; for spine length: untreated 1.819±0.064 μm; for spine density: untreated 4.58±0.43
Method: (§1) Cultures of dissociated hippocampal neurons from embryonic day 18 rats were prepared as previously described (51). Cultured neurons at 10 days in vitro (DIV) were exposed to arginine N-methyltransferase inhibitor-1 (AMI-1; 2.5 or 10 μM, Enzo Life Sciences) in plating media minus additional glutamate for the indicated times.
(§2) To identify the effects of genetic knock-down of CARM1 on dendritic morphology and synaptic clustering of synapsin, NR2B, and PSD-95, hippocampal neurons were first transfected with the construct pCAG-mGFP-Actin [a gift from Ryohei Yasuda (Addgene plasmid #21948)] at 7 DIV with Lipofectamine 2000 (Invitrogen) following the manufacturer's protocol. After a 2-day incubation, neurons were untreated or transduced with rat CARM1- or PRMT1-specific siRNA or scrambled control siRNA lentiviral particles (5×10^3 viral particles/μl, Santa Cruz) at a multiplicity of infection (MOI) of 4 to ensure efficient infection following the manufacturer's protocol, followed by overnight incubation. After a media change with plating media minus glutamate, cells were incubated for an additional 4 days, and then a portion of the cells was either lysed and used for total RNA isolation and RT-qPCR experiments, lysed and used for immunoblot analysis, or fixed for immunocytochemical analysis.
(§3) Cultures neurons were treated as described above and then fixed in 2% paraformaldehyde/4% sucrose/PBS for 10 min at room temperature (RT) followed by methanol for 20 min at −20° C. The fixed neurons were incubated in preblock buffer (20 mM phosphate buffer, pH 7.4, 5% normal goat serum, 0.05% Triton X-100, and 450 mM NaCl) at 4° C. overnight with the following primary antibodies: mouse anti-CARM1 (1:200, Cell Signaling), rabbit anti-CARM1 (1:200, Cell Signaling), rabbit anti-NR2B (1:200, Millipore), mouse anti-NR2B (1:150, Thermo Fisher), mouse anti-PSD-95 (1:100, Cell Signaling), mouse anti-synapsin (1:200, Santa Cruz), or rabbit anti-synapsin (1:250, Millipore), followed by incubation with the appropriate secondary antibodies (Alexa 488-anti-rabbit or 546-anti-mouse; each at 1:1000, Invitrogen) in preblock buffer at RT for 1 hr. After immunostaining, the cells were mounted as previously described (50) and viewed on a Zeiss LSM 710 laser-scanning confocal microscope. Images were acquired under a 63× or 100× oil immersion objective lens and scanned for further analysis.
(§4) Confocal microscope images for each treatment from each of 3 independent sets of experiments were imported into Image J (NIH) software. To determine the proportion of CARM1 signal that co-localizes with PSD-95 or synapsin, Image J (NIH) software was used with Just Another Colocalization (JACoP) plugin set. A Mander's coefficient was calculated and the average value (N=10) was further analyzed. Dendritic spine length (from dendritic shaft to the top of spine head) and dendritic spine width (diameter of the widest part of spine head) were measured and dendritic spine density (number of spines/10 μm of dendrite) was also counted. Dendritic spine shape (stubby, mushroom, or filopodium) was identified as described in previous research (5, 21). After measuring spine length (the distance from the base of the neck to the furthest point on the spine heads) and diameter of spine head and neck, the ratio from each spine was calculated and compared. […] Mushroom spines were judged if the diameter of the head was three times larger than the diameter of their necks. Stubby spines were judged if the diameter of the neck was similar to the total length of the spine.

[2] = test system: cultured hippocampal neurons; experiment: Synaptic clustering of NR2B, PSD-95 and synapsin by immunocytochemistry; type: cell-based, rat; settings: 10 μM for 4 days from 10 DIV; compared to untreated cells
Method: as §1, §2, §3, §4

HuD-mRNA binding = settings: hippocampal neurons in vitro; previous studies (ref. 22); cited from earlier work
[3] = inhibitor treatment for 4 days, compared with untreated

`O=C(Nc1ccc2c([O-])cc(S(=O)(=O)[O-])cc2c1)Nc1ccc2c([O-])cc(S(=O)(=O)[O-])cc2c1.[Na+].[Na+].[Na+].[Na+]` [AMI-1, 7,7′-(carbonylbis(azanediyl))bis(4-oxidonaphthalene-2-sulfonate), sodium salt] gave a spine head width ([1]; 2.5 μM for 4 days from 10 DIV) of 0.899±0.052 μm, a spine length ([1]; 2.5 μM for 4 days from 10 DIV) of 1.748±0.093 μm and a spine density ([1]; 2.5 μM for 4 days from 10 DIV) of 4.49±0.54 spines per 10 μm dendrite. The spine head width ([1]; 10 μM for 4 days from 10 DIV, P=0.0085) was 0.982±0.044 μm, the spine length ([1]; 10 μM for 4 days from 10 DIV, not statistically significant) was 1.634±0.072 μm and the spine density ([1]; 10 μM for 4 days from 10 DIV, no significant difference) was 5.54±0.62 spines per 10 μm dendrite. The “proportion of filopodia-type, including thin-type, spines” value [1, 3] was “dramatic decrease”, the “proportion of mushroom-type spines” value [1, 3] was “significantly increased” and the “NR2B number of clusters” value [2] was “increase”. For the same molecule, the “NR2B synaptic cluster size” value [2] was “increase”, the “PSD-95 number of clusters” value [2] was “increase” and the “PSD-95 synaptic cluster size” value [2] was “increase”. For the same molecule, the “synapsin synaptic cluster number” value [2] was “no difference”, the “synapsin synaptic cluster size” value [2] was “no difference” and the “HuD-mRNA binding and the stability and expression of NTFs, including BDNF” value (HuD-mRNA binding) was “increased”.
